Numbers after ± are expanded uncertainties.
Conditions: Vibrating tube method

SMILES: FC(F)=C(F)C(F)(F)F [hexafluoropropene]
- mass density (358 K, 4209.5 kPa, Liquid): 959.82 ± 1.1 kg/m3
- mass density (358 K, 4244 kPa, Liquid): 962.07 ± 1.1 kg/m3
- mass density (358 K, 4311.4 kPa, Liquid): 966.64 ± 1.1 kg/m3
- mass density (358 K, 4345.1 kPa, Liquid): 968.66 ± 1.1 kg/m3
- mass density (358 K, 4377.8 kPa, Liquid): 970.84 ± 1.1 kg/m3
- mass density (358 K, 4412.5 kPa, Liquid): 972.94 ± 1.1 kg/m3
- mass density (358 K, 4446.5 kPa, Liquid): 974.92 ± 1.1 kg/m3
- mass density (358 K, 4462.6 kPa, Liquid): 975.95 ± 1.1 kg/m3
- mass density (358 K, 4478.8 kPa, Liquid): 976.81 ± 1.1 kg/m3
- mass density (358 K, 4496.2 kPa, Liquid): 977.89 ± 1.1 kg/m3
- mass density (358 K, 4532.3 kPa, Liquid): 980.04 ± 1.1 kg/m3
- mass density (358 K, 4565.8 kPa, Liquid): 981.81 ± 1.1 kg/m3
- mass density (358 K, 4599.8 kPa, Liquid): 983.7 ± 1.1 kg/m3
- mass density (358 K, 4632.6 kPa, Liquid): 985.44 ± 1.1 kg/m3
- mass density (358 K, 4668.1 kPa, Liquid): 987.45 ± 1.1 kg/m3
- mass density (358 K, 4740 kPa, Liquid): 991.23 ± 1.1 kg/m3
- mass density (358 K, 4775.8 kPa, Liquid): 993.1 ± 1.1 kg/m3
- mass density (358 K, 4809.3 kPa, Liquid): 994.65 ± 1.1 kg/m3
- mass density (358 K, 4843.6 kPa, Liquid): 996.44 ± 1.1 kg/m3
- mass density (358 K, 4876.3 kPa, Liquid): 997.93 ± 1.1 kg/m3
- mass density (358 K, 4910.7 kPa, Liquid): 999.61 ± 1.1 kg/m3
- mass density (358 K, 4945.1 kPa, Liquid): 1001.33 ± 1.1 kg/m3
- mass density (358 K, 4979.1 kPa, Liquid): 1002.85 ± 1.1 kg/m3
- mass density (358 K, 5028.3 kPa, Liquid): 1005.04 ± 1.1 kg/m3
- mass density (358 K, 5084.7 kPa, Liquid): 1007.62 ± 1.1 kg/m3
- mass density (358 K, 5195.4 kPa, Liquid): 1012.4 ± 1.1 kg/m3
- mass density (358 K, 5249.7 kPa, Liquid): 1014.83 ± 1.1 kg/m3
- mass density (358 K, 5306.8 kPa, Liquid): 1017.1 ± 1.1 kg/m3
- mass density (358 K, 5363.6 kPa, Liquid): 1019.45 ± 1.1 kg/m3
- mass density (358 K, 5416.2 kPa, Liquid): 1021.54 ± 1.1 kg/m3
- mass density (358 K, 5474.6 kPa, Liquid): 1023.85 ± 1.1 kg/m3
- mass density (358 K, 5533.9 kPa, Liquid): 1026.1 ± 1.1 kg/m3
- mass density (358 K, 5592 kPa, Liquid): 1028.23 ± 1.1 kg/m3
- mass density (358 K, 5702.1 kPa, Liquid): 1032.29 ± 1.1 kg/m3
- mass density (358 K, 5755.2 kPa, Liquid): 1034.16 ± 1.1 kg/m3
- mass density (358 K, 5815.3 kPa, Liquid): 1036.29 ± 1.1 kg/m3
- mass density (358 K, 5871.8 kPa, Liquid): 1038.22 ± 1.1 kg/m3
- mass density (358 K, 5932.6 kPa, Liquid): 1040.24 ± 1.1 kg/m3
- mass density (358 K, 5991.6 kPa, Liquid): 1042.28 ± 1.1 kg/m3
- mass density (358 K, 6074.8 kPa, Liquid): 1044.98 ± 1.1 kg/m3
- mass density (358 K, 6112.3 kPa, Liquid): 1046.22 ± 1.1 kg/m3
- mass density (358 K, 6149.2 kPa, Liquid): 1047.34 ± 1.1 kg/m3
- mass density (358 K, 6186.4 kPa, Liquid): 1048.47 ± 1.1 kg/m3
- mass density (358 K, 6224.4 kPa, Liquid): 1049.67 ± 1.1 kg/m3
- mass density (358 K, 6266.3 kPa, Liquid): 1050.92 ± 1.1 kg/m3
- mass density (358 K, 6304.3 kPa, Liquid): 1052.13 ± 1.1 kg/m3
- mass density (358 K, 6342.4 kPa, Liquid): 1053.2 ± 1.1 kg/m3
- mass density (358 K, 6379.7 kPa, Liquid): 1054.31 ± 1.1 kg/m3
- mass density (358 K, 6416.4 kPa, Liquid): 1055.29 ± 1.1 kg/m3
- mass density (358 K, 6452.8 kPa, Liquid): 1056.39 ± 1.1 kg/m3
- mass density (358 K, 6490 kPa, Liquid): 1057.54 ± 1.1 kg/m3
- mass density (358 K, 6563.2 kPa, Liquid): 1059.62 ± 1.1 kg/m3
- mass density (358 K, 6600.1 kPa, Liquid): 1060.63 ± 1.1 kg/m3
- mass density (358 K, 6637.3 kPa, Liquid): 1061.72 ± 1.1 kg/m3
- mass density (358 K, 6674.3 kPa, Liquid): 1062.71 ± 1.1 kg/m3
- mass density (358 K, 6711.6 kPa, Liquid): 1063.79 ± 1.1 kg/m3
- mass density (358 K, 6747.9 kPa, Liquid): 1064.77 ± 1.1 kg/m3
- mass density (358 K, 6784.3 kPa, Liquid): 1065.78 ± 1.1 kg/m3
- mass density (358 K, 6821 kPa, Liquid): 1066.78 ± 1.1 kg/m3
- mass density (358 K, 6857.4 kPa, Liquid): 1067.85 ± 1.1 kg/m3
- mass density (358 K, 6894.7 kPa, Liquid): 1068.84 ± 1.1 kg/m3
- mass density (358 K, 6931.9 kPa, Liquid): 1069.87 ± 1.1 kg/m3
- mass density (358 K, 6970.4 kPa, Liquid): 1070.83 ± 1.1 kg/m3
- mass density (358 K, 7006.9 kPa, Liquid): 1071.75 ± 1.1 kg/m3
- mass density (358 K, 7152.9 kPa, Liquid): 1075.52 ± 1.1 kg/m3
- mass density (358 K, 7190.1 kPa, Liquid): 1076.36 ± 1.1 kg/m3
- mass density (358 K, 7228 kPa, Liquid): 1077.43 ± 1.1 kg/m3
- mass density (358 K, 7266.4 kPa, Liquid): 1078.28 ± 1.1 kg/m3
- mass density (358 K, 7303.8 kPa, Liquid): 1079.27 ± 1.1 kg/m3
- mass density (358 K, 7341.7 kPa, Liquid): 1080.24 ± 1.1 kg/m3
- mass density (358 K, 7379.5 kPa, Liquid): 1081.09 ± 1.1 kg/m3
- mass density (358 K, 7418.9 kPa, Liquid): 1082.02 ± 1.1 kg/m3
- mass density (358 K, 7494.3 kPa, Liquid): 1083.92 ± 1.1 kg/m3
- mass density (358 K, 7532.3 kPa, Liquid): 1084.8 ± 1.1 kg/m3
- mass density (358 K, 7568.4 kPa, Liquid): 1085.67 ± 1.1 kg/m3
- mass density (358 K, 7605.7 kPa, Liquid): 1086.46 ± 1.1 kg/m3
- mass density (358 K, 7643.1 kPa, Liquid): 1087.34 ± 1.1 kg/m3
- mass density (358 K, 7680.1 kPa, Liquid): 1088.21 ± 1.1 kg/m3
- mass density (358 K, 7718 kPa, Liquid): 1089.17 ± 1.1 kg/m3
- mass density (358 K, 7755.4 kPa, Liquid): 1089.97 ± 1.1 kg/m3
- mass density (358 K, 7792.1 kPa, Liquid): 1090.77 ± 1.1 kg/m3
- mass density (358 K, 7828.3 kPa, Liquid): 1091.56 ± 1.1 kg/m3
- mass density (358 K, 7903.4 kPa, Liquid): 1093.29 ± 1.1 kg/m3
- mass density (358 K, 7941.2 kPa, Liquid): 1094.08 ± 1.1 kg/m3
- mass density (358 K, 7980.6 kPa, Liquid): 1094.93 ± 1.1 kg/m3
- mass density (358 K, 8017.9 kPa, Liquid): 1095.72 ± 1.1 kg/m3
- mass density (358 K, 8056.1 kPa, Liquid): 1096.58 ± 1.1 kg/m3
- mass density (358 K, 8093.2 kPa, Liquid): 1097.39 ± 1.1 kg/m3
- mass density (358 K, 8130.7 kPa, Liquid): 1098.19 ± 1.1 kg/m3
- mass density (358 K, 8167.5 kPa, Liquid): 1098.98 ± 1.1 kg/m3
- mass density (358 K, 8204.2 kPa, Liquid): 1099.77 ± 1.1 kg/m3
- mass density (358 K, 8277.6 kPa, Liquid): 1101.37 ± 1.1 kg/m3
- mass density (358 K, 8354.7 kPa, Liquid): 1102.88 ± 1.1 kg/m3
- mass density (358 K, 8391 kPa, Liquid): 1103.6 ± 1.1 kg/m3
- mass density (358 K, 8427.7 kPa, Liquid): 1104.39 ± 1.1 kg/m3
- mass density (358 K, 8465.5 kPa, Liquid): 1105.17 ± 1.1 kg/m3
- mass density (358 K, 8503.3 kPa, Liquid): 1105.96 ± 1.1 kg/m3
- mass density (358 K, 8541.1 kPa, Liquid): 1106.74 ± 1.1 kg/m3
- mass density (358 K, 8614.7 kPa, Liquid): 1108.07 ± 1.1 kg/m3
- mass density (358 K, 8651.4 kPa, Liquid): 1108.96 ± 1.1 kg/m3
- mass density (358 K, 8689.1 kPa, Liquid): 1109.62 ± 1.1 kg/m3
- mass density (358 K, 8725.5 kPa, Liquid): 1110.44 ± 1.1 kg/m3
- mass density (358 K, 8762.8 kPa, Liquid): 1111.12 ± 1.1 kg/m3
- mass density (358 K, 8836.9 kPa, Liquid): 1112.57 ± 1.1 kg/m3
- mass density (358 K, 8873.4 kPa, Liquid): 1113.15 ± 1.1 kg/m3
- mass density (358 K, 8910.1 kPa, Liquid): 1113.92 ± 1.1 kg/m3
- mass density (358 K, 8946.4 kPa, Liquid): 1114.65 ± 1.1 kg/m3
- mass density (358 K, 8982.6 kPa, Liquid): 1115.32 ± 1.1 kg/m3
- mass density (358 K, 9019.5 kPa, Liquid): 1115.96 ± 1.1 kg/m3
- mass density (358 K, 9058.4 kPa, Liquid): 1116.68 ± 1.2 kg/m3
- mass density (358 K, 9094.5 kPa, Liquid): 1117.44 ± 1.2 kg/m3
- mass density (358 K, 9170.1 kPa, Liquid): 1118.78 ± 1.2 kg/m3
- mass density (358 K, 9207.6 kPa, Liquid): 1119.39 ± 1.2 kg/m3
- mass density (358 K, 9244 kPa, Liquid): 1120.02 ± 1.2 kg/m3
- mass density (358 K, 9318.1 kPa, Liquid): 1121.42 ± 1.2 kg/m3
- mass density (358 K, 9355.8 kPa, Liquid): 1122.09 ± 1.2 kg/m3
- mass density (358 K, 9393.2 kPa, Liquid): 1122.82 ± 1.2 kg/m3
- mass density (358 K, 9429.9 kPa, Liquid): 1123.38 ± 1.2 kg/m3
- mass density (358 K, 9506 kPa, Liquid): 1124.84 ± 1.2 kg/m3
- mass density (358 K, 9543.2 kPa, Liquid): 1125.38 ± 1.2 kg/m3
- mass density (358 K, 9579.6 kPa, Liquid): 1126.21 ± 1.2 kg/m3
- mass density (358 K, 9653.1 kPa, Liquid): 1127.35 ± 1.2 kg/m3
- mass density (358 K, 9689.3 kPa, Liquid): 1128.07 ± 1.2 kg/m3
- mass density (358 K, 9728 kPa, Liquid): 1128.56 ± 1.2 kg/m3
- mass density (358 K, 9764.4 kPa, Liquid): 1129.27 ± 1.2 kg/m3
- mass density (358 K, 9801.8 kPa, Liquid): 1129.98 ± 1.2 kg/m3
- mass density (358 K, 9839.1 kPa, Liquid): 1130.57 ± 1.2 kg/m3
- mass density (358 K, 9875.2 kPa, Liquid): 1131.06 ± 1.2 kg/m3
- mass density (358 K, 9913 kPa, Liquid): 1131.87 ± 1.2 kg/m3
- mass density (358 K, 9951.5 kPa, Liquid): 1132.43 ± 1.2 kg/m3
- mass density (358 K, 9988 kPa, Liquid): 1133.16 ± 1.2 kg/m3
- mass density (358.16 K, 4.9 kPa, Fluid (supercritical or subcritical phases)): 0.14 ± 0.03 kg/m3
- mass density (358.16 K, 5.8 kPa, Fluid (supercritical or subcritical phases)): 0.15 ± 0.03 kg/m3
- mass density (358.16 K, 6.2 kPa, Fluid (supercritical or subcritical phases)): 0.17 ± 0.03 kg/m3
